From patent US10273218B2, “BCL-3 inhibitors” (University College Cardiff Consultants Limited, priority 2014, dated 2019)

Columns and labels:
[1] = test system: MDA-MB-436 cells (triple negative breast invasive ductal carcinoma); assay: mouse Model 4 (tumour growth at transplantation site), MDA-MB-436; assay type: in vivo, mice; details: 3.5 mg/kg in 1% DMSO intraperitoneal daily; MDA-MB-436 subcutaneous; caliper tumour volume
Method: Another model (Model 4) studied the effect of the compound's ability to inhibit the growth of tumour cells at the transplantation site. Human tumour cell lines were injected subcutaneously into recipient mice, followed 2 days later by single daily intraperitoneal injections of a compound (3.5 mg/kg in 1% DMSO) for the entire course of the experiment. Tumour burden was monitored longitudinally for up to 12 weeks in vivo by palpation and caliper measurements of tumour volume, and subsequently histology performed on tumours at the end of the experiment.
Model 4 tested the effect of compounds of the application to inhibit the growth of tumour cells at the transplantation site. MDA-MB-436 cells were injected subcutaneously into recipient mice, followed 2 days later by single daily intraperitoneal injections of compound 12 (3.5 mg/kg in 1% DMSO) for the entire course of the experiment. Tumour burden was monitored longitudinally for up to 12 weeks in vivo by palpation and caliper measurements of tumour volume, and subsequently histology performed on tumours at the end of the experiment.

[2] = test system: MDA-MB-231 human breast cancer cells; assay: mouse Model 2 (colonization, growth and spread of secondary lesions at distal sites); assay type: in vivo, mice; details: 3.5 mg/kg intraperitoneally daily
Method: In all experiments, each compound was administered by intraperitoneally at 3.5 mg/kg.
Another model (Model 2) tested the effect of the compound's ability to inhibit the colonization and subsequent growth and spread of secondary lesions at distal sites. Human tumour cell lines were injected into the bloodstream of recipient mice, followed 2 days later by single daily intraperitoneal injections of the compound (3.5 mg/kg in 1% DMSO) for the entire course of the experiment. Tumour burden was monitored longitudinally for up to 8 weeks in vivo by live luminescence imaging, and subsequently histology performed on affected organs at the end of the experiment.
MDA-MB-231 human breast cancer cells were used in each of the three xenograft models of metastatic breast cancer.

[3] = test system: MDA-MB-231-Luc highly metastatic human breast cancer cells; assay: in vivo metastasis mouse model, disease free survival; parameters: species or system Nude mice; details: 3.5 mg/Kg once daily for 10 days; MDA-MB-231-Luc i.v.; monitored up to 49 days
Method: Nude mice are injected i.v. with 200,000 highly metastatic human breast cancer cells expressing luciferase (MDA-MB-231-Luc) then are given a compound of Formula (I) or Formula (Ia) once daily for about 10 days and are monitored for tumours by total body scan using Xenogen-IVIS. Mice with a luciferase signal above background in repeated scans in any part of their torso are scored as having metastatic disease. Total light emission in the abdominal region is quantified at time points up to 49 days post surgery and plotted as mean total light yield.
Nude mice were injected i.v. with 200,000 highly metastatic human breast cancer cells expressing luciferase (MDA-MB-231-Luc) then given 3.5 mg/Kg of compound 12, reference compound A, or Reference compound B once daily for 10 days and monitored for tumours by total body scan using Xenogen-IVIS. Mice with a luciferase signal above background in repeated scans in any part of their torso were scored as having metastatic disease. Total light emission in abdominal region was quantified at time points up to 49 days post surgery and plotted as mean total light yield. Control n=12, Reference compound A n=10, Reference compound B n=4; compound 12 n=4.

## COc1ccc(C(=O)Nc2ccccc2C(=O)NCCN2CCOCC2)c(F)c1 [Compound 12, 2-fluoro-4-methoxy-N-(2-((2-morpholinoethyl)carbamoyl)phenyl) benzamide]
[1]
  average tumour growth at the transplantation site: significant reductions in average tumour growth
[2]
  effect on subsequent growth and spread of the secondary tumours (FIG. 9): significant effects
[3]
  disease free survival: 100%
